In brackets after ≈: the same amount, converted by molar mass.

Broadly, the solubility (kinetic) is the concentration staying in solution when a stock, usually in DMSO, is diluted into the medium.

The conditions of this data set: buffer; pH 7.4; 200.0 µM.
With `COC(=O)Cc1c(O)ccn(CCc2c[nH]c3ccccc23)c1=O`, the kinetic solubility was > 49 µg/mL. Next, `NC(=Nc1ccc(Cl)cc1)c1ccccc1`: > 34.6 µg/mL; `NS(=O)(=O)c1ccc(CCNC(=O)COC(=O)c2ccc([N+](=O)[O-])o2)cc1`: > 59.6 µg/mL. Next, `O=C(COC(=O)c1ccccc1Br)NC1CCCC1`: > 48.9 µg/mL. `Cc1ccc(NC(=O)c2cc(F)c(F)cc2Cl)nc1` displayed a solubility (kinetic) of 12.8 µg/mL (≈ 45.3 µM). To `CNS(=O)(=O)c1cccc(C(=O)OCC(=O)Nc2nc(OC)cc(OC)n2)c1` belongs 15 µg/mL (≈ 36.5 µM); to `O=CC1=C(N2CCOCC2)/C(=C/c2ccc(Cl)cc2)CC1`, 32.1 µg/mL (≈ 106 µM).

For the compound `COCCCNc1nc(-c2ccc(Cl)cc2)nc2ccccc12`, the solubility (kinetic) was found to be 4.3 µg/mL (≈ 13.1 µM). `O=C(NC1CCCCC1)c1ccc(-c2ccccc2[N+](=O)[O-])o1` returned a kinetic solubility of 2.9 µg/mL (≈ 9.23 µM). Regarding `COCCN(CCOC)C(=O)Nc1ccc(Cl)cc1`, the kinetic solubility is > 43 µg/mL. For `O=C(Nc1cc(S(=O)(=O)N2CCCC2)ccc1Cl)c1cc(F)c(F)c(F)c1F`, the solubility (kinetic) amounted to 17.7 µg/mL (≈ 40.5 µM). In the case of `CN(C(=O)c1ccc(Br)cc1)C1CCS(=O)(=O)C1` (stereo not drawn), the solubility (kinetic) was > 49.8 µg/mL. As to `Cc1csc(SCC(=O)Nc2ccccc2)n1`, the kinetic solubility amounted to 35.5 µg/mL (≈ 134 µM). Next, `COc1cccc(C(=O)OCC(=O)NC23CC4CC(CC(C4)C2)C3)c1`: 19.8 µg/mL (≈ 57.7 µM).

As for `Brc1ccccc1OCCN1CCCC1`, the solubility (kinetic) stood at 32 µg/mL (≈ 118 µM). This solubility kinetic lies about 1.6-fold higher than the previous one.

In turn, `Cc1nc2cc3c(cc2s1)OCO3` had a kinetic solubility of 13.1 µg/mL (≈ 67.8 µM). This solubility kinetic lies about 2.4-fold lower than the previous one. In turn, `CN(C1CCCCC1)S(=O)(=O)c1ccc(-c2ccccn2)s1` displayed a kinetic solubility of 0.5 µg/mL (≈ 1.49 µM). On to `Cc1cc(NC(=O)Nc2ccccc2Cl)no1`, for which the kinetic solubility was determined as 36.2 µg/mL (≈ 144 µM). In turn, `O=c1nc(-c2ccccc2)c2cc(Br)ccc2[nH]1` returned a kinetic solubility of 1.8 µg/mL (≈ 5.98 µM). This solubility kinetic lies about 20-fold lower than the previous one. Compound `Cc1ccc(NC(=O)C2CCN(S(=O)(=O)c3cc([N+](=O)[O-])ccc3Cl)CC2)nc1` registered a kinetic solubility of 16 µg/mL (≈ 36.5 µM). To `CCCNc1nc(Cl)nc(NCc2cccnc2)n1` belongs 33.5 µg/mL (≈ 120 µM); to `Nc1ccc2nc(SCC(=O)N3CCOCC3)sc2c1`, > 46.4 µg/mL; to `N/C(=N/S(=O)(=O)c1ccccc1)c1cccc([N+](=O)[O-])c1`, > 45.8 µg/mL. The compound `Cc1ccc(-c2nc3ccccc3[nH]2)cn1` showed a solubility (kinetic) of 29.5 µg/mL (≈ 141 µM). Compound `Cc1ccc(CNC(=S)Nc2cc(C)ccc2OC(F)F)cc1` had a kinetic solubility of 4.7 µg/mL (≈ 14 µM). As to `COCCn1cnnc1SCC(=O)Nc1cc(C)on1`, the solubility (kinetic) is > 44.6 µg/mL. To `CC(=O)c1sc2nsc(SCCN3CCCC3)c2c1N` belongs 46.7 µg/mL (≈ 143 µM); to `CN1C(=O)C2(OCC(CO)([N+](=O)[O-])CO2)c2ccccc21` (stereo not drawn), > 44.1 µg/mL. To `Cc1ccc(S(=O)(=O)N[C@H](C(=O)OCC(=O)NC(=O)NCc2ccco2)C(C)C)cc1` belongs > 67.7 µg/mL; to `COc1cccc(CNc2nc3ccccc3n2C)c1O`, 6.2 µg/mL (≈ 21.9 µM); to `O=C(CNS(=O)(=O)c1ccccc1)NCc1ccco1`, > 44.1 µg/mL. To `COCCCNS(=O)(=O)c1ccc2[nH]c(=O)[nH]c2c1` belongs > 42.8 µg/mL; to `Cc1ccc(C)c(N(CC(=O)N2CCc3ccccc3C2)S(C)(=O)=O)c1`, 52.8 µg/mL (≈ 142 µM); to `O=C(Nc1ccc(Cl)cc1)NC1CCCCNC1=O` (stereo not drawn), > 42.3 µg/mL. `Cc1cccc(-c2noc(CN(C)C(=O)COc3ccccc3)n2)c1` showed a kinetic solubility of 36.9 µg/mL (≈ 109 µM). To `COCCNC(=O)C(NC(=O)C1CCCCC1)C12CC3CC(CC(C3)C1)C2` (stereo not drawn) belongs 5.5 µg/mL (≈ 14.6 µM); to `Cc1sc(NC(=S)NC(=O)c2ccco2)c(C#N)c1C`, 1.1 µg/mL (≈ 3.6 µM); to `COc1cc(C)nc(NC(=S)N(C)C(=O)c2ccccc2)n1`, 0.5 µg/mL (≈ 1.58 µM). Next, `NC(=O)CSc1nccn1Cc1ccc(Cl)cc1`: > 42.3 µg/mL; `O=S(=O)(/N=C(/Nc1cccnc1)c1ccccc1)c1ccc(F)cc1F`: > 56 µg/mL; `COC(=O)CCC(=O)N1CCCC(CO)(Cc2ccccc2F)C1` (stereo not drawn): > 50.6 µg/mL.

For the compound `Cn1c(SCC(=O)NC2CC2)nnc1-c1cccs1`, the kinetic solubility is > 44.2 µg/mL. Next, `CCOC(=O)c1sc(=S)n(CC)c1NC(=O)c1ccccc1C`: 3.4 µg/mL (≈ 9.7 µM); `COc1ccc(OC)c(S(=O)(=O)N2CCc3ccccc3C2)c1`: 22.1 µg/mL (≈ 66.3 µM); `Cc1ccc(CC(=O)Nc2ccc(S(=O)(=O)N3CCOCC3)cc2)cc1`: 7.5 µg/mL (≈ 20 µM). With `O=C1CC(c2ccccc2)CN1C(=O)c1cccnc1` (stereo not drawn), the kinetic solubility is 34.8 µg/mL (≈ 131 µM). Take `C/C(=N\n1c(C)nc2ccccc2c1=O)c1ccc(N)cc1`: the kinetic solubility is > 43.9 µg/mL. In the case of `COC(=O)C1CCN(c2cnccn2)CC1`, the solubility (kinetic) is > 33.2 µg/mL. To `COC(=O)C1CCN(CC(=O)NC(=O)Nc2ccccc2F)CC1` belongs > 50.6 µg/mL; to `COc1ccc(S(=O)(=O)Nc2ccc3c(c2)n(C)c(=O)n3C)cc1C`, > 54.2 µg/mL; to `O=C(Cn1cc(C(F)(F)F)ccc1=O)Nc1ccccc1`, 10 µg/mL (≈ 33.8 µM).

In the case of `Cc1cc(NC(=O)c2cc([N+](=O)[O-])cc([N+](=O)[O-])c2)no1`, the kinetic solubility is 9.8 µg/mL (≈ 33.5 µM).

For `O=C(CN1CCc2ccccc21)NC(=O)NC1CCCCC1`, the solubility (kinetic) came out at 34.8 µg/mL (≈ 115 µM). Next, `CC1CN(C(=S)NC(=O)c2ccccc2)CC(C)O1` (stereo not drawn): > 41.8 µg/mL; `O=C(CCN1C(=O)C2C3C=CC(C3)C2C1=O)NC1CCCCC1` (stereo not drawn): > 47.5 µg/mL. `CC(C)(C)NC(=O)c1cccc2c1C(=O)c1ccccc1-2` came in with a solubility (kinetic) of 3.9 µg/mL (≈ 14 µM). Next, `O=c1[nH]c(=S)n(C2CC2)c(O)c1C=Nc1ccc2c(c1)OCO2`: 1.3 µg/mL (≈ 3.92 µM).

As for `O=C(O)c1ccc(N2C(=O)CCCC2=O)cc1`, the kinetic solubility is 25.9 µg/mL (≈ 111 µM). As to `CCOc1ccccc1/C=C/C(=O)N1CCN(C(=O)c2ccco2)CC1`, the solubility (kinetic) was > 53.2 µg/mL.

For `CC(C)c1ccc(Nc2ccc(C(=O)O)cc2[N+](=O)[O-])cc1`, the solubility (kinetic) is > 45 µg/mL. Next, `O=C(COC(=O)C1CCC(=O)N1)Nc1ccccc1OC(F)F` (stereo not drawn): > 49.2 µg/mL; `COc1ccc(CN2CCC(C)CC2)cc1OCc1ccccc1`: 45.3 µg/mL (≈ 139 µM). Next, `CNc1snc(C)c1C(=O)OCC(=O)N(C)Cc1ccccc1`: 49.8 µg/mL (≈ 149 µM); `CN1CCC(=NOc2ccc([N+](=O)[O-])cc2)CC1`: > 37.4 µg/mL; `CC(=O)c1cc(C#N)c(N2CCN(c3ccccc3)CC2)nc1C`: 0.2 µg/mL (≈ 0.624 µM). To `Cc1cc(C)nc(NS(=O)(=O)c2ccc(CC(C)C)cc2)c1` belongs 28.9 µg/mL (≈ 90.8 µM); to `O=C(Nc1cccc(C(=O)Nc2ccc(Cl)cn2)c1)c1ccccc1`, 0.7 µg/mL (≈ 1.99 µM). For `CC1CCCN(S(=O)(=O)c2cccc3nonc23)C1` (stereo not drawn), the solubility (kinetic) amounted to 13.2 µg/mL (≈ 46.9 µM). `CC(=O)c1ccc(N=C2C(=O)Nc3ccccc32)cc1` displayed a solubility (kinetic) of 36.6 µg/mL (≈ 138 µM). To `CN1CCN(C(=O)c2cc(=O)c3cc(Cl)cc(Cl)c3o2)CC1` belongs 50.5 µg/mL (≈ 148 µM). To `COc1ccc(CCC(=O)N2CCCc3ccccc32)cc1` belongs 39.1 µg/mL (≈ 132 µM); to `Cc1ccc(N2C(=O)C3CCCN3C2=S)cc1Cl` (stereo not drawn), > 42.1 µg/mL. Consider `Cc1ccnc2nc(C(=O)NCc3ccccc3)nn12`, for which the solubility (kinetic) is > 40.1 µg/mL. Next, `CC(=O)Nc1ccccc1C(=O)N1CCN(c2cccc(C)c2C)CC1`: > 52.7 µg/mL; `O=C(COC(=O)c1ccccc1)Nc1ncc([N+](=O)[O-])s1`: > 46.1 µg/mL. As for `Cc1cc(C)cc(OCc2ccc(C(=O)NC3CCOC3=O)o2)c1` (stereo not drawn), the solubility (kinetic) is > 49.4 µg/mL.

With `CCOc1cc(C(=O)NC2CCCCCCC2)cc(OCC)c1OCC`, the solubility (kinetic) is 2.3 µg/mL (≈ 6.33 µM). To `Cc1ccc(C(=O)Nc2ccccc2N2CCCCC2)cc1` belongs < 0.3 µg/mL. Regarding `Cc1ccc(NC(=O)N2CCCC(C(=O)O)C2)cc1` (stereo not drawn), the solubility (kinetic) was > 39.3 µg/mL. For the compound `O=C(NCc1ccccn1)Nc1cc(Cl)ccc1Cl`, the solubility (kinetic) is 11.9 µg/mL (≈ 40.2 µM). Next, `CCN(CC(=O)NCc1cccs1)CC(=O)Nc1ccc(C(N)=O)cc1`: > 56.2 µg/mL; `COc1cc(NC(=O)c2ccccc2Cl)c2ncccc2c1`: < 0.3 µg/mL; `O=C(NCc1c(O)ccc2ccccc12)c1ccccc1`: 1 µg/mL (≈ 3.61 µM). To `CC(=O)Nc1ccc(NC(=O)COC(=O)c2cnccn2)cc1` belongs > 47.1 µg/mL; to `CCc1ccc2oc(C(=O)Nc3nonc3C)c(C)c2c1`, < 0.2 µg/mL. To `CCOC(=O)Cc1csc(NC(=O)c2ccc([N+](=O)[O-])cc2[N+](=O)[O-])n1` belongs > 57 µg/mL; to `N#CCN1C(=O)C(=O)N(Cc2cccc(Cl)c2)C1=O`, > 41.7 µg/mL. As for `COc1ccc(-c2nnc(SCC(=O)O)n2C)cc1OC`, the solubility (kinetic) was > 46.4 µg/mL. Next, `CCOC(=O)C(C)Oc1ccc(NC(=O)C(Cl)Cl)cc1` (stereo not drawn): > 48 µg/mL; `COc1ccc(NCC(=O)n2c(C)c(C)c3ccccc32)cc1OC`: 4.9 µg/mL (≈ 14.5 µM). Next, `Cc1cc(OCC(=O)N(C)Cc2ccccc2)ccc1Br`: 22.7 µg/mL (≈ 65.2 µM); `COc1ccc(CC(=O)NC2CCCc3ccccc32)cc1` (stereo not drawn): 15.8 µg/mL (≈ 53.5 µM). Turning to `CN1CCN(S(=O)(=O)c2ccc3c(c2)oc(=O)n3C)CC1`, the kinetic solubility was > 46.7 µg/mL. To `COc1ccccc1N1CCN(CCN2C(=O)C3CCCN3C2=O)CC1` (stereo not drawn) belongs 40.7 µg/mL (≈ 114 µM). Next, `CCN1C(=O)CC(NCc2ccc(S(N)(=O)=O)cc2)C1=O` (stereo not drawn): > 46.7 µg/mL; `CC1(NC(=O)Nc2ccccc2)CCS(=O)(=O)C1` (stereo not drawn): > 40.2 µg/mL; `CC(=O)Nc1ccc(C(=O)N2CCCc3ccccc32)cc1`: > 44.2 µg/mL. On to `O=C(Nc1ccc2c(c1)CCC2)c1ccc(Cl)nc1`, for which the kinetic solubility worked out at 7.8 µg/mL (≈ 28.6 µM). Next, `O=C(COC(=O)c1cc(=O)[nH]c2ccccc12)Nc1ccc(F)cc1`: 15.4 µg/mL (≈ 45.3 µM); `CC1(CCC(=O)N2CCCC(Nc3ccc(F)cc3)C2)CC1` (stereo not drawn): > 45.7 µg/mL; `CCn1ccc(-c2ccccc2)c(C#N)c1=O`: > 33.6 µg/mL. Regarding `CC1=C(C(=O)OC2CCCCC2)C(c2ccccc2)NC(=O)N1` (stereo not drawn), the solubility (kinetic) came to 11.3 µg/mL (≈ 35.9 µM). To `COC(=O)c1sccc1NC(=O)CNC(=O)c1ccccc1` belongs > 47.8 µg/mL.
